{
  "source": "patent US9115092B2",
  "about": "“Substituted quinazoline and pyrido-pyrimidine derivatives” (Asana Biosciences, LLC, priority 2010, dated 2015)",
  "key": {"[1]": {"test_system": "pS6RP(S235/236), PC3 cells", "experiment": "In-cell Western assay, pS6RP(S235/236) in PC3 cells", "assay_type": "cell-based, human", "method_in_brief": "(§1)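 Overnight-seeded PC3 cells were treated 2 h with serially diluted compound, then fixed and immunostained with phospho-specific primary antibodies and Eu-labelled secondary. Time-resolved Eu signal read at 615 nm (ex 340 nm), normalised by Hoechst 33258 staining (ex 355/em 460 nm); IC50 from sigmoidal dose-response fit.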"}, "[2]": {"test_system": "pAKT(T308) (phosphorylated at threonine 308), PC3 cells", "experiment": "In-cell Western assay, pAKT(T308) in PC3 cells", "assay_type": "cell-based", "settings": "Homo sapiens, PC-3, In-cell Western", "method_in_brief": "as §1"}, "[3]": {"test_system": "pAKT(5473) (phosphorylated at serine 473), PC3 cells", "experiment": "In-cell Western assay, pAKT(5473) in PC3 cells", "assay_type": "cell-based", "settings": "Homo sapiens, PC-3, In-cell Western, read-out: pAkt-S473", "method_in_brief": "as §1"}, "PI3 kinase isoform β": {"target": "PI3 kinase isoform β (Homo sapiens, UniProt P42338)", "sequence (P42338 whole entry, canonical isoform)": "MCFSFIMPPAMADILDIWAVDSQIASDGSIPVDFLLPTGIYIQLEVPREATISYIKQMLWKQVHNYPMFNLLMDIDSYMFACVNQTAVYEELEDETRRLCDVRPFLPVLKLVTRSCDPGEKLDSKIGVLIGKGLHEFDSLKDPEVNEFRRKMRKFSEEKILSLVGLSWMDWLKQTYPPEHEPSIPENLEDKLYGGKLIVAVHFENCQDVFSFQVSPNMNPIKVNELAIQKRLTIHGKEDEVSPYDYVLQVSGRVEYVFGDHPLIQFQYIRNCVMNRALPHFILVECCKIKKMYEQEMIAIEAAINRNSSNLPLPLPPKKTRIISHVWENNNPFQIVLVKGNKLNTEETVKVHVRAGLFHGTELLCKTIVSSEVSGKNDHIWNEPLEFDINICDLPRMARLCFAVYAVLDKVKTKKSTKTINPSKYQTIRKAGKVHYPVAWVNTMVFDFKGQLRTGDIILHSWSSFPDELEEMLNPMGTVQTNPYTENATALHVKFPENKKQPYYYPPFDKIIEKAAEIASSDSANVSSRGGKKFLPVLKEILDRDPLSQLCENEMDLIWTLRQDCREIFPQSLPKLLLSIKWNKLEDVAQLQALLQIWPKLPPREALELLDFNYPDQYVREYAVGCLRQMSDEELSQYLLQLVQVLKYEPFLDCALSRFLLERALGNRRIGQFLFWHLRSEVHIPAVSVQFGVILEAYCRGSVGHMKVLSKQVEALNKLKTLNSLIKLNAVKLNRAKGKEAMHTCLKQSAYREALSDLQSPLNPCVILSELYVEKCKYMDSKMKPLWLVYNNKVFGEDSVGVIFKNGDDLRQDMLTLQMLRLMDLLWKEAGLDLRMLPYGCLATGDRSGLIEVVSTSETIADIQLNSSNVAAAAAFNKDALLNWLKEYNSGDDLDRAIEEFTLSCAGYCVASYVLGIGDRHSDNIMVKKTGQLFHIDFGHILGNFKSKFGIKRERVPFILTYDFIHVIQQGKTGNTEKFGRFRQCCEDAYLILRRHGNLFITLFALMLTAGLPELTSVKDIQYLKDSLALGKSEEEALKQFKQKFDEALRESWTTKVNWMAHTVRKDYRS", "sequence (P27986 whole entry partner, canonical isoform)": "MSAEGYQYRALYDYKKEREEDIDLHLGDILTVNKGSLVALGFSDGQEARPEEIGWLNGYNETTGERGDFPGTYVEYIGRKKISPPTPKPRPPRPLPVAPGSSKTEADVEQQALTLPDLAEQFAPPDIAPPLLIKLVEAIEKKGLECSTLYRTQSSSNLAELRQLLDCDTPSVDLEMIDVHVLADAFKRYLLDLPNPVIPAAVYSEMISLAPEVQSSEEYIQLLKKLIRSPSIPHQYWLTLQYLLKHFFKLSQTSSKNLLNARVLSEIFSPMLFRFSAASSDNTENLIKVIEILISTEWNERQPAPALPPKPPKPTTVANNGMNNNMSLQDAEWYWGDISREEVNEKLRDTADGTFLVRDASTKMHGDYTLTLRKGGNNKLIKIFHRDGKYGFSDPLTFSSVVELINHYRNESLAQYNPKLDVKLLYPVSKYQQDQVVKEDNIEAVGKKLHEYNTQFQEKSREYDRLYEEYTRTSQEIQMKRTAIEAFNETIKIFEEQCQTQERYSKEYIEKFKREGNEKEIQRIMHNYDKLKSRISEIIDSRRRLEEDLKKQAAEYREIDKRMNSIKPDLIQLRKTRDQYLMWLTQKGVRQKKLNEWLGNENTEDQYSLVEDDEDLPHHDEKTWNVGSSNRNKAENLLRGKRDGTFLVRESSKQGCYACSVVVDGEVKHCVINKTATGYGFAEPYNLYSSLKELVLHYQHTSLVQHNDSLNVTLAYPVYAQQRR", "experiment": "PI3 Kinase TR-FRET assay, isoform β", "assay_type": "biochemical", "settings": "read-out: inhibition of PI3 kinase isoform β, IC50", "protocol": "(§2) The ability of compounds of the invention to inhibit PI3K activity was determined in a homogeneous TR-FRET assay using a PI3K assay kit (Millipore, USA; cat #33-016) according to manufacturer's instructions. PI3-Kinases (isoforms α, β, γ and δ) catalyze the phosphorylation of phosphatidylinositol, PIP2 to PIP3 in the presence of ATP and Mg^2+. The PIP3 product is detected by displacement of biotin-PIP3 from an energy transfer complex consisting of Europium labeled anti-GST monoclonal antibody, a GST-tagged PH domain, biotinylated PIP3 and Streptavidin-APC. Excitation of Europium in the complex results in an energy transfer to the APC and a fluorescence emission at 665 nm. The PIP3 product displaces biotin-PIP3 from the complex resulting in a loss of energy transfer and thus a decrease in signal.\n(§3) To test for the ability of compounds to inhibit the activity of PI3Kα (wild-type), exemplary compounds of formula (I) were dissolved in DMSO and directly distributed into 384-well plates at a volume of 0.5 μL. 14.5 μL of P110/P85α/PIP2 mixture in buffer (obtained from the Millipore kit) containing MgCl2 (40 mM) and DTT (5 mM) was added to compound wells and incubated for 60 min at room temperature. P110/P85α was expressed in SF9 insect cells and purified nickel column extraction. Five ng of wild-type P110/P85α was used in the assay. The kinase reaction was started by the addition of ATP. The assay concentrations of both PIP2 and ATP were 10 μM. The reaction mixture was incubated for 30 min at room temperature and was terminated by the addition of stop mix and detection mix. Fluorescence was measured at 615 and 665 nm upon excitation at 340 nm in a Victor™ V5 fluorometer (Perkin Elmer, USA). The fluorescence emission ratio at 665 to 615 nm, proportional to the kinase activity, was plotted against the compound concentration to generate dose-response curves and IC50 values were determined using GraphPad Prism® 5 software.\nThe activity of PI3 kinase isoforms β, γ and δ were assayed in a similar manner to the assay protocol described above for PI3Kα, by substituting the appropriate p110/p85 isoform for the p110α/p85α. Compounds of formula (I) caused inhibition of PI3 kinase isoforms β, γ and δ as determined by these assays. For example, the compounds of examples 3, 51, 54, 111, 113, 115, and 253 each caused inhibition of PI3 kinase isoform β with IC50 values <50 nM. The compounds of examples 104, 133, 146 and 152 each caused inhibition of PI3 kinase isoform β with IC50 values <500 nM. The compounds of examples 3, 51, 54, 104, 111, 113, 115, 133, 253, and 152 each caused inhibition of PI3 kinase isoform γ with IC50 values <500 nM. […] The compounds of examples 2, 3, 51, 54, 111, 113, and 253 each caused inhibition of PI3 kinase isoform […] with IC50 values >1 μM."}, "PI3Kα mutation H1047R": {"target": "PI3Kα mutation H1047R (Homo sapiens, UniProt P42336, H1047R)", "sequence (P42336 whole entry H1047R)": "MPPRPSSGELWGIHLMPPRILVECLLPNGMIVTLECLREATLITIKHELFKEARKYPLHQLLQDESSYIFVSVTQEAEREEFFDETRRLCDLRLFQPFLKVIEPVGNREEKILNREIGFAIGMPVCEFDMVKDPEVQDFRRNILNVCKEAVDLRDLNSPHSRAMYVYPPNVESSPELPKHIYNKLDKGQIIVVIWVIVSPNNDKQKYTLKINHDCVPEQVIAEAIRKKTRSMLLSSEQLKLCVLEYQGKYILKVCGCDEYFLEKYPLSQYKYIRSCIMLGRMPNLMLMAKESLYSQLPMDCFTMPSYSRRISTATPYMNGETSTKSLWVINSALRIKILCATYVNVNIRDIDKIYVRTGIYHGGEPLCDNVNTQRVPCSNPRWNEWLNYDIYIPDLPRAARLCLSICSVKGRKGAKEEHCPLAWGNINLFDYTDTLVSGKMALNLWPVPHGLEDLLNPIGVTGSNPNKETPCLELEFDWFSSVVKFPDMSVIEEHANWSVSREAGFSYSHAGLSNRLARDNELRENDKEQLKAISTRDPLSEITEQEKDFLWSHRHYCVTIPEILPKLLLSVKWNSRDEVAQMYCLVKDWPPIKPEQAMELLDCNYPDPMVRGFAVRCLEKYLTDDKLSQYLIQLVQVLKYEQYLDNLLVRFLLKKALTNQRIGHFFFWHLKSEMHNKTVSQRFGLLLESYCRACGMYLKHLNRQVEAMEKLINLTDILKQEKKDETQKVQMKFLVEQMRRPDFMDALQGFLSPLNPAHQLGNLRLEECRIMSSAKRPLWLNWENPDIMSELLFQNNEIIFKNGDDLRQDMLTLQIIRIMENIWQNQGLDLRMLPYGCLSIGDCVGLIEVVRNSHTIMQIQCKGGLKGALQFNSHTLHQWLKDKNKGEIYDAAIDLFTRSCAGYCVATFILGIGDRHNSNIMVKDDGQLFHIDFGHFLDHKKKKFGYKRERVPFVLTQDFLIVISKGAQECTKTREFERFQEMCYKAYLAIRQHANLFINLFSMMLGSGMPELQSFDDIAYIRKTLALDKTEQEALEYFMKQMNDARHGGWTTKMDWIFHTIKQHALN", "sequence (P27986 whole entry partner)": "as the sequence (P27986 whole entry partner, canonical isoform) above", "experiment": "PI3 Kinase TR-FRET assay, PI3Kα mutation H1047R", "assay_type": "biochemical", "settings": "read-out: inhibition of PI3Kα mutation H1047R, IC50", "protocol": "as §2, §3\nThe activity of PI3Kα mutations H1047R and E545K were assayed in a similar manner to the assay protocol described above for PI3Kα (wild type). […]"}, "[4]": {"settings": "Homo sapiens, PC-3, In-cell Western"}},
  "data": [
    {"compound": "CN(C)C(=O)c1ccc(NC(=O)Nc2ccc(-c3nc(N4CCOCC4)c4ccc(-c5cncnc5)cc4n3)cc2)cc1", "note": "[Example 1, N,N-Dimethyl-4-(3-{4-[4-morpholin-4-yl-7-pyrimidin-5-yl-quinazolin-2-yl)-phenyl]-ureido}-benzamide]", "values": [
      {"measurement": "IC50", "setting": "[1]; [4]", "value": "< 0.1", "unit": "µM"},
      {"measurement": "IC50", "setting": "[2]", "value": "0.501 to 5", "unit": "µM"},
      {"measurement": "IC50", "setting": "[3]", "value": "0.1 to 0.5", "unit": "µM"}
    ]},
    {"compound": "Cc1ccc(-c2ccc3c(N4CCOCC4)nc(-c4ccc(NC(=O)Nc5ccc(C(=O)N(C)C)cc5)cc4)nc3c2)o1", "note": "[Example 2, N,N-Dimethyl-4-(3-{4-[7-(5-methyl-furan-2-yl)-4-morpholin-4-yl-quinazolin-2-yl]-phenyl}-ureido)-benzamide]", "values": [
      {"measurement": "IC50", "setting": "[1]; [4]", "value": "0.1 to 0.5", "unit": "µM"},
      {"measurement": "IC50", "setting": "PI3 kinase isoform β", "value": "< 1", "unit": "µM"},
      {"measurement": "IC50", "setting": "[2]", "value": "0.1 to 0.5", "unit": "µM"},
      {"measurement": "IC50", "setting": "[3]", "value": "0.1 to 0.5", "unit": "µM"}
    ]},
    {"compound": "CN(C)C(=O)c1ccc(NC(=O)Nc2ccc(-c3nc(N4CCOCC4)c4ccc(-c5ccco5)cc4n3)cc2)cc1", "note": "[Example 51, 4-{3-[4-(7-furan-2-yl-4-morpholin-4-yl-quinazolin-2-yl)-phenyl]-ureido}-N,N-dimethyl-benzamide]", "values": [
      {"measurement": "IC50", "setting": "[1]; In-cell Western", "value": "0.501 to 5", "unit": "µM"}
    ]},
    {"compound": "CN(C)C(=O)c1ccc(NC(=O)Nc2ccc(-c3nc(N4CCOCC4)c4ccc(-c5cncnc5)cc4n3)cc2)c(F)c1", "note": "[Example 133, 3-fluoro-N,N-dimethyl-4-(3-(4-(4-morpholino-7-(pyrimidin-5-yl)quinazolin-2-yl)phenyl)ureido)-benzamide]", "values": [
      {"measurement": "IC50", "setting": "[1]; [4]", "value": "0.201 to 10", "unit": "µM"},
      {"measurement": "IC50", "setting": "PI3 kinase isoform β", "value": "< 0.5", "unit": "µM"},
      {"measurement": "IC50", "setting": "[2]", "value": "< 0.1", "unit": "µM"},
      {"measurement": "IC50", "setting": "[3]", "value": "0.501 to 5", "unit": "µM"},
      {"measurement": "IC50", "setting": "PI3Kα mutation H1047R", "value": "< 0.5", "unit": "µM"}
    ]},
    {"compound": "CN(C)C(=O)c1ccc(NC(=O)Nc2ccc(-c3nc(N4CCOCC4)c4ccc(-c5cccnc5F)cc4n3)cc2)c(F)c1", "note": "[Example 146, 3-fluoro-4-(3-(4-(7-(2-fluoropyridin-3-yl)-4-morpholino-quinazolin-2-yl)phenyl)ureido)-N,N-dimethyl-benzamide]", "values": [
      {"measurement": "IC50", "setting": "PI3 kinase isoform β", "value": "< 0.5", "unit": "µM"},
      {"measurement": "IC50", "setting": "[2]", "value": "< 0.1", "unit": "µM"},
      {"measurement": "IC50", "setting": "[3]", "value": "< 0.1", "unit": "µM"},
      {"measurement": "IC50", "setting": "PI3Kα mutation H1047R", "value": "< 0.5", "unit": "µM"}
    ]},
    {"compound": "CN(C)C(=O)c1ccc(NC(=O)Nc2ccc(-c3nc(N4CCOCC4)c4ccc(-c5cccnc5)cc4n3)cc2)c(F)c1", "note": "[Example 152, 3-fluoro-N,N-dimethyl-4-(3-(4-(4-morpholino-7-(pyridin-3-yl)quinazolin-2-yl)phenyl)ureido)-benzamide]", "values": [
      {"measurement": "IC50", "setting": "PI3 kinase isoform β", "value": "< 0.5", "unit": "µM"},
      {"measurement": "IC50", "setting": "[2]", "value": "< 0.1", "unit": "µM"},
      {"measurement": "IC50", "setting": "[3]", "value": "0.501 to 5", "unit": "µM"},
      {"measurement": "IC50", "setting": "PI3Kα mutation H1047R", "value": "< 0.5", "unit": "µM"}
    ]}
  ]
}
